{"source": "patent US11957699B2", "about": "“Composition comprising punicalagin for inhibiting PAR2 activity” (INDUSTRY-ACADEMIC COOPERATION FOUNDATION, YONSEI UNIVERSITY, priority 2018, dated 2024)", "key": {"[1]": {"test_system": "SD rats with acute pancreatitis induced by caerulein", "assay": "Acute pancreatitis induced by caerulein in rats", "type": "in vivo", "description": "In 6-week-old SD rats, it was confirmed whether punicalagin has an effect of alleviating symptoms of acute pancreatitis induced by caerulein.\nSpecifically, […], and after 30 minutes, 40 μg/kg of caerulein, which is an acute pancreatitis-inducing substance, was intraperitoneally injected, and then, after 2 hours, the pancreas of the experimental animals was extracted and analyzed.\nFirst, the weight of the extracted pancreas was measured to determine whether punicalagin inhibits edema, which is a symptom of acute pancreatitis. As a result, it was confirmed that when 10 mg/kg punicalagin was administered to […], in which acute pancreatitis was induced by caerulein, the edema of the pancreas was inhibited by 95% or more (panel A of FIG. 8).\nNext, as a result of observing the nucleus and cytoplasm of the extracted pancreatic tissue with a microscope through H&E staining in order to confirm the damage to pancreatic cells by caerulein, it was confirmed that in the rats administered with caerulein, the distance between pancreatic cells was increased and the cells were damaged due to symptoms of acute pancreatitis."}, "[2]": {"test_system": "NZB/W F1 mice with lupus nephritis", "assay": "Lupus nephritis mouse model (NZB/W F1)", "type": "in vivo", "description": "With NZB/W F1 mice that were purchased from Central Lab. Animal Inc., the effect of punicalagin on symptoms of lupus nephritis was confirmed.\nAs control groups, there were two groups including a nephritis-induced group that was injected only with physiological saline and a nephritis-induced group that was injected with 7 mg/kg methylprednisolone (MPL), which is a standard therapeutic agent for lupus nephritis, and proteinuria was measured twice a week (panel A of FIG. 9).\nNext, the protective effect of punicalagin on renal structural damage against lupus nephritis was histologically evaluated. To this end, kidneys were extracted and PAS stained in 30-week-old mice, and the degree of damage to glomeruli, ducts, and blood vessels was histologically quantified. In addition, when lupus nephritis was induced, the expressions of IgG and C3, which are autoantibodies mostly expressed in kidney tissues, were fluorescence-stained and observed under a fluorescence microscope.\nIn order to determine the mechanism of the alleviating effect of punicalagin on lupus nephritis, the spleen was extracted from 30-week-old mice, the spleen weight and the number of splenocytes were measured, and changes in T cells in the spleen were analyzed by FACS.\nAfter serum was isolated from 30-week-old mice, it was analyzed by the enzyme immunoassay to determine whether punicalagin inhibited or increased cytokines that were expressed by lupus nephritis.\nIn order to determine the alleviating effect of punicalagin on lupus nephritis, serum was isolated from 30-week-old mice, and the expression of B cell autoantibodies was analyzed by the enzyme immunoassay.\nIn order to determine the alleviation mechanism of punicalagin against lupus nephritis, the expressions of VCAM-1 and ICAM-1 were analyzed by immunohistochemical staining in renal tissues of 30-week-old mice."}, "[3]": {"assay": "Weight change of wild-type mice", "type": "in vivo", "details": "10 mg/kg intraperitoneally at 2-day intervals", "description": "(§1) In order to determine the toxicity of punicalagin, the effect of NIH3T3 cells on cell viability and the weight change of 8-week-old wild-type mice were evaluated, and the heart, liver, and lung were extracted from 30-week-old lupus mice and were histologically evaluated by performing hematoxylin-eosin staining."}, "[4]": {"test_system": "heart, liver, and lung tissues of lupus mice", "assay": "Histology (hematoxylin-eosin) of heart, liver and lung of lupus mice", "type": "in vivo", "details": "3 mg/kg, 1 mg/kg, and 0.3 mg/kg; vs saline or methylprednisolone groups", "description": "as §1"}, "PAR2 [5]": {"molecular_target": "T1, PAR2 (Homo sapiens, UniProt P55085)", "T1 sequence (P55085 26-397)": "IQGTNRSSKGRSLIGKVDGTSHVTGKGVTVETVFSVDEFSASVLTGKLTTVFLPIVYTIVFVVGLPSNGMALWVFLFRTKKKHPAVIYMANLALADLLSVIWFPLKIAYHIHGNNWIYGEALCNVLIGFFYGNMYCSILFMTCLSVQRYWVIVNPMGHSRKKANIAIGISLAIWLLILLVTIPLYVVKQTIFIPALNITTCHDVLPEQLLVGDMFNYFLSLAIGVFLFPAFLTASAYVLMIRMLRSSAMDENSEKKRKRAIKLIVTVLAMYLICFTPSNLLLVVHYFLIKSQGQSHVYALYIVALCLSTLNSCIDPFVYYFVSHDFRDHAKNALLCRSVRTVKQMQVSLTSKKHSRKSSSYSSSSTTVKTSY", "assay": "Intracellular calcium increase by house dust mite extract and PAR2-AP in primary cultured conjunctival epithelial cells", "type": "cell-based", "parameters": "endogenous in cells", "details": "10 μM, 10 μg/mL HDM extract, 100 μM PAR2-AP", "description": "In order to determine whether punicalagin has an effect of inhibiting cytokine secretion by house dust mites (HDM), after removing a culture medium of conjunctival epithelial cells that were primary cultured and differentiated in a transwell, 300 μL of the Flou4-NW dye mixture was added, and then, it was stabilized for 1 hour such that a Ca^2+ dye was loaded into the cells while blocking the light. Next, punicalagin was pretreated by concentration (0, 10, and 30 μM) for 10 minutes, and then, it was treated with a 10 μg/mL house dust mite extract (HDM extract). Afterwards, the concentration change of calcium ions (Ca^2+) was measured for 3 minutes at 1-second intervals, and 100 μM PAR2-AP was treated to measure whether punicalagin inhibited the concentration change of intracellular calcium ions by PAR2 receptor activation."}, "PAR2 [6]": {"molecular_target": "T1, PAR2", "assay": "Increase of intracellular calcium ions by PAR2-AP in HT-29 cells (Fluo4-NW)", "type": "cell-based", "parameters": "endogenous in cells; host or cells: HT-29 colon cancer cells", "details": "HT-29 cells", "description": "After colon cancer cells (HT-29) were cultured for 48 hours in a 96-well micro plate with the RPMI1640 culture medium, the culture medium was removed, and then, 100 μL of the Flou4-NW dye mixture was added. While blocking the light, it was stabilized for 1 hour such that a calcium ion dye (Ca^2+ dye) was loaded into the cells. Next, after treating punicalin (0, 3, 10, and 30 μM), punicalagin (0, 0.3, 1, 2, 3, and 10 μM), or ellagic acid (0, 30, and 100 μM) for 10 minutes by concentration, each well was treated with 30 μM PAR2-AP (PAR2-activating peptide, SLIGRL-NH2) to measure the concentration change in intracellular calcium ions."}, "[7]": {"details": "3 mg/kg, 1 mg/kg, and 0.3 mg/kg"}, "[8]": {"details": "3 mg/kg, 1 mg/kg, and 0.3 mg/kg, similar to methylprednisolone"}}}
{"smiles": "O=CC1OC(=O)c2cc(O)c(O)c(O)c2-c2c(cc(O)c(O)c2O)C(=O)OC1C1OC(=O)c2cc(O)c(O)c(O)c2-c2c(O)c(O)c3oc(=O)c4c(c(O)c(O)c5oc(=O)c2c3c54)-c2c(cc(O)c(O)c2O)C(=O)OCC1O", "note": "(centres unmarked) [punicalagin, 1,2,3,11,12,13-hexahydroxy-5,10-dioxo-8-[3,4,5,11,17,18,19,22,23,34,35-undecahydroxy-8,14,26,31-tetraoxo-9,13,25,32-tetraoxaheptacyclo[25.8.0.0^2,7.0^15,20.0^21,30.0^24,29.0^28,33]pentatnaconta-1(35),2,4,6,15,17,19,21,23,27,29,33-dodecaen-10-yl]-5,7,8,10-tetrahydrodibenzo[f,h][1,4]dioxecin-7-carbaldehyde]", "values": [{"measurement": "inhibition of edema of the pancreas (pancreas weight)", "setting": "[1]; 10 mg/kg, 30 minutes before 40 μg/kg caerulein, pancreas extracted after 2 hours", "value": "≥ 95", "unit": "%"}, {"measurement": "edema of the pancreas and cell damage (H&E staining)", "setting": "[1]; pretreated at 3 mg/kg, then caerulein", "value": "strongly inhibited"}, {"measurement": "concentrations of inflammatory cytokines (INF-γ, IL-2, IL-4, IL-6, IL-β, TNF-α, IL-1β, etc.) increased by caerulein", "setting": "[1]; rat, in vivo", "value": "significantly decreased"}, {"measurement": "kidney weight", "setting": "[2]; 1 mg/kg", "value": "reduced"}, {"measurement": "serum expressions of anti-dsDNA, IgG1, IgG2a, IgG2b, and IgG3", "setting": "[2]; 1 mg/kg and 10 mg/kg", "value": "decreased"}, {"measurement": "expression of regulatory T cells (Treg)", "setting": "[2]; 3 mg/kg", "value": "significantly increased"}, {"measurement": "number of CD4 T cells in the spleen and expressions of TH1, TH2, and TH17 T cells (FACS)", "setting": "[2]; 3 mg/kg and 1 mg/kg", "value": "significantly reduced"}, {"measurement": "lower proteinuria compared to the nephritis-induced group", "setting": "[2]; 3 mg/kg and 1 mg/kg, at the level of 7 mg/kg methylprednisolone", "value": 60, "unit": "%"}, {"measurement": "serum creatinine concentration", "setting": "[2]; 3 mg/kg group", "value": "lowest"}, {"measurement": "degree of damage to glomeruli, ducts, and blood vessels (PAS staining)", "setting": "[2]; 3 mg/kg, 1 mg/kg, and 0.1 mg/kg, 30-week-old mice, similar to methylprednisolone", "value": "alleviated"}, {"measurement": "IgG and C3 depositions in kidney tissue (fluorescence)", "setting": "[2]; [7]", "value": "significantly reduced"}, {"measurement": "expressions of VCAM-1 and ICAM-1 in kidney tissues (immunohistochemical staining)", "setting": "[2]; [7]", "value": "significantly reduced"}, {"measurement": "serum expressions of IL-10 and TGF-β1", "setting": "[2]; [7]", "value": "increased"}, {"measurement": "total number of splenocytes", "setting": "[2]; [7]", "value": "not increased"}, {"measurement": "serum expressions of IFN-γ, IL-17A, and IL-6", "setting": "[2]; [8]", "value": "reduced"}, {"measurement": "weight of the spleen", "setting": "[2]; [8]", "value": "not increased"}, {"measurement": "mortality from 23 weeks to 30 weeks", "setting": "[2]; 3, 1 and 0.3 mg/kg intraperitoneally three times a week", "value": "none of the subjects died"}, {"measurement": "serum creatinine concentration vs nephritis-induced group", "setting": "[2]; punicalagin-treated groups (3, 1, 0.3 mg/kg)", "value": "lower"}, {"measurement": "weight change in wild-type mice", "setting": "[3]", "value": "no weight change"}, {"measurement": "histological difference in heart, liver, and lung tissues", "setting": "[4]", "value": "no histological difference"}, {"measurement": "concentration increases of intracellular calcium ions by house dust mites and PAR2-AP", "setting": "PAR2 [5]", "value": "all inhibited"}, {"measurement": "IC50", "setting": "PAR2 [6]; 30 μM PAR2-AP, 10 minutes pretreatment, read-out: IC50, inhibition of the PAR2 receptor (intracellular calcium increase by PAR2-AP)", "value": 1450, "unit": "nM"}, {"measurement": "strength of PAR2 receptor inhibition compared to punicalin", "setting": "PAR2 [6]; PAR2-AP", "value": "≥ 10", "unit": "times"}]}
